Source: the supplement of paper PMC9663587

Key:
Neratinib/HKI272 = compound: CCOc1cc2ncc(C#N)c(Nc3ccc(OCc4ccccn4)c(Cl)c3)c2cc1NC(=O)/C=C/CN(C)C [Neratinib/HKI272]; assay: increase in dead-cell fraction, 72 h; higher = more death;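 note: breast cancer cell lines in 384-well plates, stained with Hoechst plus LIVE/DEAD far red dye and imaged, cells above an LDR intensity threshold counted dead, Hoechst-negative corpses included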
[1] = compound: CCN1CCN(Cc2ccc(Nc3ncc(F)c(-c4cc(F)c5nc(C)n(C(C)C)c5c4)n3)nc2)CC1; assay: as above
BSJ-03-123 = compound: CC(=O)c1c(C)c2cnc(Nc3ccc(N4CCN(CCOCCOCCOCCNC(=O)COc5cccc6c5C(=O)N(C5CCC(=O)NC5=O)C6=O)CC4)cn3)nc2n(C2CCCC2)c1=O [BSJ-03-123]; assay: as above
Flavopiridol = compound: CN1CC[C@H](c2c(O)cc(O)c3c(=O)cc(-c4ccccc4Cl)oc23)[C@H](O)C1 [Flavopiridol]; assay: as above
THZ531 = compound: CN(C)C/C=C/C(=O)Nc1ccc(C(=O)N2CCC[C@@H](Nc3ncc(Cl)c(-c4c[nH]c5ccccc45)n3)C2)cc1 [THZ531]; assay: as above
THZ1 = compound: CN(C)C/C=C/C(=O)Nc1ccc(C(=O)Nc2cccc(Nc3ncc(Cl)c(-c4c[nH]c5ccccc45)n3)c2)cc1 [THZ1]; assay: as above
LEE011/Ribociclib = compound: CN(C)C(=O)c1cc2cnc(Nc3ccc(N4CCNCC4)cn3)nc2n1C1CCCC1 [LEE011/Ribociclib]; assay: as above
YKL-5-124 = compound: C=CC(=O)Nc1ccc(C(=O)Nc2[nH]nc3c2CN(C(=O)N[C@H](CN(C)C)c2ccccc2)C3(C)C)cc1 [YKL-5-124]; assay: as above
[2] = compound: CC(=O)c1c(C)c2cnc(Nc3ccc(N4CCNCC4)cn3)nc2n(C2CCCC2)c1=O; assay: as above
[3] = compound: CCc1cnn2c(NCc3ccc[n+]([O-])c3)cc(N3CCCC[C@H]3CCO)nc12; assay: as above
[4] = compound: CCCCOc1c(C(=O)c2c(F)cc(C)cc2F)c[nH]c2nncc1-2
Saracatinib/AZD0530 = compound: CN1CCN(CCOc2cc(OC3CCOCC3)c3c(Nc4c(Cl)ccc5c4OCO5)ncnc3c2)CC1 [Saracatinib/AZD0530]
Luminespib/NVP-AUY922 = compound: CCNC(=O)c1noc(-c2cc(C(C)C)c(O)cc2O)c1-c1ccc(CN2CCOCC2)cc1 [Luminespib/NVP-AUY922]
BSJ-01-175 = compound: CN(C)C/C=C/C(=O)Nc1ccc(O[C@@H]2CCC[C@@H](Nc3ncc(Cl)c(-c4c[nH]c5ccccc45)n3)C2)cc1 [BSJ-01-175]
THZ-P1-2 = compound: CN(C)C/C=C/C(=O)NC1=CC=C(C=C1)C(=O)NC2=CC=CC(=C2)NC3=NC=NC(=C3)C4=CNC5=CC=CC=C54 [THZ-P1-2]
Ceritinib/LDK378 = compound: Cc1cc(Nc2ncc(Cl)c(Nc3ccccc3S(=O)(=O)C(C)C)n2)c(OC(C)C)cc1C1CCNCC1 [Ceritinib/LDK378]
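Throughout, for GR50, 72 h: breast cancer and non-malignant breast epithelial cell lines, Deep Dye Drop or Dye Drop imaging, nine half-log doses, GR normalized to time-zero plates and DMSO-only controls.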

## HCC1937
Neratinib/HKI272; 0.0003162 µM
  increase in dead-cell fraction: 0.0017
Neratinib/HKI272; 0.001 µM
  increase in dead-cell fraction: 0.0031
Neratinib/HKI272; 0.003162 µM
  increase in dead-cell fraction: 0.0127
Neratinib/HKI272; 0.01 µM
  increase in dead-cell fraction: 0.0186
Neratinib/HKI272; 0.03162 µM
  increase in dead-cell fraction: 0.0314
Neratinib/HKI272; 0.1 µM
  increase in dead-cell fraction: 0.0326
Neratinib/HKI272; 0.3162 µM
  increase in dead-cell fraction: 0.0327
Neratinib/HKI272; 1 µM
  increase in dead-cell fraction: 0.0368
Neratinib/HKI272; 3.162 µM
  increase in dead-cell fraction: 0.0974
[1]; 0.001 µM
  increase in dead-cell fraction: -0.0017
[1]; 0.003162 µM
  increase in dead-cell fraction: -0.0029
[1]; 0.01 µM
  increase in dead-cell fraction: -0.0019
[1]; 0.03162 µM
  increase in dead-cell fraction: -0.0004
[1]; 0.1 µM
  increase in dead-cell fraction: -0.0064
[1]; 0.3162 µM
  increase in dead-cell fraction: -0.0073
[1]; 1 µM
  increase in dead-cell fraction: -0.0012
[1]; 3.162 µM
  increase in dead-cell fraction: 0.0025
[1]; 10 µM
  increase in dead-cell fraction: 0.0559
BSJ-03-123; 0.001 µM
  increase in dead-cell fraction: 0.001
BSJ-03-123; 0.003162 µM
  increase in dead-cell fraction: -0.0071
BSJ-03-123; 0.01 µM
  increase in dead-cell fraction: 0.0079
BSJ-03-123; 0.03162 µM
  increase in dead-cell fraction: 0
BSJ-03-123; 0.1 µM
  increase in dead-cell fraction: 0.0032
BSJ-03-123; 0.3162 µM
  increase in dead-cell fraction: -0.0022
BSJ-03-123; 1 µM
  increase in dead-cell fraction: -0.0018
BSJ-03-123; 3.162 µM
  increase in dead-cell fraction: -0.0018
BSJ-03-123; 10 µM
  increase in dead-cell fraction: 0.0245
Flavopiridol; 0.0001 µM
  increase in dead-cell fraction: -0.0009
Flavopiridol; 0.0003162 µM
  increase in dead-cell fraction: -0.0013
Flavopiridol; 0.001 µM
  increase in dead-cell fraction: -0.0022
Flavopiridol; 0.003162 µM
  increase in dead-cell fraction: -0.0083
Flavopiridol; 0.01 µM
  increase in dead-cell fraction: 0.0073
Flavopiridol; 0.03162 µM
  increase in dead-cell fraction: 0
Flavopiridol; 0.1 µM
  increase in dead-cell fraction: 0.0006
Flavopiridol; 0.3162 µM
  increase in dead-cell fraction: 0.0316
Flavopiridol; 1 µM
  increase in dead-cell fraction: 0.0846
THZ531; 0.0001 µM
  increase in dead-cell fraction: 0.0017
THZ531; 0.0003162 µM
  increase in dead-cell fraction: 0.0017
THZ531; 0.001 µM
  increase in dead-cell fraction: 0.0043
THZ531; 0.003162 µM
  increase in dead-cell fraction: -0.0008
THZ531; 0.01 µM
  increase in dead-cell fraction: -0.0084
THZ531; 0.03162 µM
  increase in dead-cell fraction: -0.0082
THZ531; 0.1 µM
  increase in dead-cell fraction: 0.0051
THZ531; 0.3162 µM
  increase in dead-cell fraction: 0.0511
THZ531; 1 µM
  increase in dead-cell fraction: 0.0969
THZ1; 0.0001 µM
  increase in dead-cell fraction: -0.0003
THZ1; 0.0003162 µM
  increase in dead-cell fraction: -0.0027
THZ1; 0.001 µM
  increase in dead-cell fraction: -0.0105
THZ1; 0.003162 µM
  increase in dead-cell fraction: -0.0045
THZ1; 0.01 µM
  increase in dead-cell fraction: -0.0053
THZ1; 0.03162 µM
  increase in dead-cell fraction: -0.0002
THZ1; 0.1 µM
  increase in dead-cell fraction: 0.06
THZ1; 0.3162 µM
  increase in dead-cell fraction: 0.0438
THZ1; 1 µM
  increase in dead-cell fraction: 0.104
LEE011/Ribociclib; 0.001 µM
  increase in dead-cell fraction: -0.0088
LEE011/Ribociclib; 0.003162 µM
  increase in dead-cell fraction: -0.0054
LEE011/Ribociclib; 0.01 µM
  increase in dead-cell fraction: -0.0115
LEE011/Ribociclib; 0.03162 µM
  increase in dead-cell fraction: -0.0122
LEE011/Ribociclib; 0.1 µM
  increase in dead-cell fraction: -0.0012
LEE011/Ribociclib; 0.3162 µM
  increase in dead-cell fraction: -0.0035
LEE011/Ribociclib; 1 µM
  increase in dead-cell fraction: -0.0021
LEE011/Ribociclib; 3.162 µM
  increase in dead-cell fraction: -0.0077
LEE011/Ribociclib; 10 µM
  increase in dead-cell fraction: 0.0003
YKL-5-124; 0.001 µM
  increase in dead-cell fraction: 0.004
YKL-5-124; 0.003162 µM
  increase in dead-cell fraction: 0.0243
YKL-5-124; 0.01 µM
  increase in dead-cell fraction: 0.0426
YKL-5-124; 0.03162 µM
  increase in dead-cell fraction: 0.0331
YKL-5-124; 0.1 µM
  increase in dead-cell fraction: 0.0403
YKL-5-124; 0.3162 µM
  increase in dead-cell fraction: 0.0391
YKL-5-124; 1 µM
  increase in dead-cell fraction: 0.0843
YKL-5-124; 3.162 µM
  increase in dead-cell fraction: 0.0582
YKL-5-124; 10 µM
  increase in dead-cell fraction: 0.0895
[2]; 0.0003162 µM
  increase in dead-cell fraction: -0.0018
[2]; 0.001 µM
  increase in dead-cell fraction: -0.0051
[2]; 0.003162 µM
  increase in dead-cell fraction: 0.0021
[2]; 0.01 µM
  increase in dead-cell fraction: 0.0002
[2]; 0.03162 µM
  increase in dead-cell fraction: -0.0009
[2]; 0.1 µM
  increase in dead-cell fraction: -0.0009
[2]; 0.3162 µM
  increase in dead-cell fraction: -0.0038
[2]; 1 µM
  increase in dead-cell fraction: -0.0027
[2]; 3.162 µM
  increase in dead-cell fraction: -0.0018
[3]; 0.0001 µM
  increase in dead-cell fraction: 0.0021
[3]; 0.0003162 µM
  increase in dead-cell fraction: -0.0036
[3]; 0.001 µM
  increase in dead-cell fraction: 0.0015
[3]; 0.003162 µM
  increase in dead-cell fraction: -0.0021
[3]; 0.01 µM
  increase in dead-cell fraction: 0.0113
[3]; 0.03162 µM
  increase in dead-cell fraction: 0.156
[3]; 0.1 µM
  increase in dead-cell fraction: 0.192
[3]; 0.3162 µM
  increase in dead-cell fraction: 0.181
[3]; 1 µM
  increase in dead-cell fraction: 0.19
[4]
  GR50, 72 h: < 0.001 µM
Saracatinib/AZD0530
  GR50, 72 h: > 10 µM
Luminespib/NVP-AUY922
  GR50, 72 h: 0.0114 µM
BSJ-01-175
  GR50, 72 h: 0.302 µM
THZ-P1-2
  GR50, 72 h: 4.05 µM
Ceritinib/LDK378
  GR50, 72 h: 3.53 µM
